We go through two compounds from US20100137226A1, “FATIGUE-REDUCING AGENT” (KYOWA HAKKO BIO CO., LTD, priority 2006, published 2010).

SMILES strings stand for the structures. Like-named read-outs stand apart in the source and are kept apart here.

In the experiment the test system is SD male rats bred under water immersion. Conditions: swim with burden of ca. 8% of body weight, n=4, FIG. 1.

As to `Cl.NCCC[C@H](N)C(=O)O` [ornithine, L-ornithine hydrochloride], the “swimming time (time until the tip of nose was submerged in water for 10 seconds or more)” value (ornithine 1000 mg/kg body weight orally once a day for 5 days of water immersion breeding) is given as “recovery of the swimming time was recognized”.
Take `N[C@@H](CCC(=O)N[C@@H](CS)C(=O)NCC(=O)O)C(=O)O` [glutathione, reduced glutathione]: the “swimming time (time until the tip of nose was submerged in water for 10 seconds or more)” value (reduced glutathione 800 mg/kg body weight orally once a day for 5 days of water immersion breeding) is “no change was recognized”.
